Patent publication US20230043813A1, “METHODS FOR TARGETED CELL DEPLETION” (The Regents of the University of California, priority 2019, published 2023)

Assays:
[1] = tested on: Cas9 expressing U-251, LN-229, T98G, and LN-18 glioblastoma cells; assay: cell cycle analysis (PI staining, flow cytometry); format: cell-based, human; conditions: one to five days; TMZ 50 μM or 100 μM
Experimental: The effects of genome shredding on cell cycle progression were then assessed. Cells were treated with TMZ or sgCIDEs for one to five days and then stained with PI after fixation for analysis by flow cytometry. […] Increases of the Sub-G1 population was more prominent in TP53-mutant U-251 cells compared LN-229 with wild-type TP53, consistent with previous observations that TP53 status affects resolution of the G2/M arrest.

HEK293T and HAP1 cells = assay: mammalian competitive proliferation assay, cells expressing Cas9 WT; format: cell-based, human; conditions: WT Cas9, eight-day assay period
Description: (§1) For assessment of CRISPR-Cas programmed cell depletion using guide RNAs targeting an essential gene (RPA1) or sgCIDEs targeting hundreds of thousands of loci within the genome, cells were stably transduced with a lentiviral vector expressing Cas9-wt (pCF226) or ProCas9Flavi (pCF730) and selected on puromycin. Subsequently, these cell lines were further stably transduced with vectors expressing various mCherry-tagged sgRNAs and analyzed as follows: 1) After mixing sgRNA expressing populations with parental cells, the fraction of mCherry-positive cells was quantified over time. Different sgRNAs targeting a neutral gene (sgOR2B6), an essential gene (sgRPA1), >100,000 genomic loci (sgCIDE) and a non-targeting control (sgNT) were compared. 2) Alternatively, the cell lines were partially transduced with lentiviral vectors expressing a GFP-tagged dTEV (pCF736) or WNV (pCF738) protease, and cell depletion quantified by flow cytometry. Depletion of protease-expressing (GFP+) cells was quantified among the sgRNA-positive (mCherry+) population.
The effect of guide RNA expression on cell viability was assessed using a competitive proliferation assay in which cells expressing a specific sgRNA were mixed with parental cells expressing only Cas9 WT, and the mCherry-positive population was followed over time. […] Guide RNAs targeting the essential RPA1 gene depleted over the eight-day assay period.

[2] = tested on: Cas9 expressing U-251, LN-229, T98G, and LN-18 cells; assay: colony formation assay (crystal violet); format: cell-based, human; conditions: all four tested GBM cell lines, two weeks
Experimental: Because recurrent tumors develop from cells that escape treatment, either by avoiding exposure, tolerating the effects, or developing resistance, colony formation assays were performed to evaluate the robustness of CRISPR-Cas genome shredding in eliminating target cells.
TMZ-resistant LN-229 cell lines were isolated to determine which types of treatments could overcome such resistance. Cas9 expressing U-251, LN-229, T98G, and LN-18 cells were stably transduced with lentiviral vectors expressing sgNT-1/2 or sgCIDE-1/2/3/6/8/10 (Table 2), and seeded at 100, 1,000, and 10,000 cells per 6-well plate. Control cells were treated with DMSO or TMZ (50 μM).

[3] = tested on: U-251, LN-229, T98G and LN-18 glioblastoma cells; assay: luminescence-based quantification of cell viability; design: species or system human; conditions: over five days
Experimental: To investigate the speed of cell elimination by either method, Cas9 expressing TMZ-sensitive U-251 and LN-229, and TMZ-resistant T98G and LN-18, glioblastoma cells were treated with TMZ or these cells were transduced with lentiviral vectors expressing sgCIDEs.

[4] = tested on: Cas9 expressing U-251 and LN-229; assay: comet assay (genomic fragmentation); format: cell-based, human; conditions: 24 hours post-transduction, compared to sgNT-1/2/3
Description: To look at the genomic effects of repetitive loci targeting, DNA from lysed targeted cells was separated on agarose-coated slides.

[5] = tested on: HEK293T and HAP1 cells expressing ProCas9Flavi; assay: competitive proliferation assay, cells expressing ProCas9Flavi; format: cell-based, human; conditions: for cell depletion with protease: ProCas9Flavi cells, WNV protease vs dTEV; for cell depletion in the absence of a stimulus: genomically integrated ProCas9Flavi
Description: as §1
Cas-induced death by editing or ‘CIDE, as an output constrains the performance of ProCas9. The system remains off to minimize genomic damage yet is vigilant to respond to a stimulus. To develop this protease-induced altruistic defense platform, stable expression of the best CIDE guide RNAs (sgCIDE-2, sgCIDE-4) was assessed in conjunction with a genomically integrated ProCas9Flavi cassette to determine cell viability in the absence of a stimulus (FIG. 5B). […] Induction of this stably integrated altruistic defense system was then tested by Flavivirus proteases.

| Substance | cell cycle profile [1] | depletion of the mCherry-positive population (HEK293T and HAP1 cells) | effect on colony count [2] | lethality (cell viability) [3] | comet tails (genomic fragmentation) [4] | cell depletion with protease [5] | cell depletion in the absence of a stimulus [5] |
| --- | --- | --- | --- | --- | --- | --- | --- |
| sgOR2B6-2: guide RNA to olfactory receptor gene, GGGTATGAAGTTTGGTGTCC (SEQ ID NO:33) (chemistry not given here) [reference compound] | comparable normal cell cycle profiles | no depletion | – | – | – | – | – |
| sgRPA1-3: guide RNA to essential gene RPA1, ACTTTCGTCAACCAGTTCTA (SEQ ID NO:37) [reference compound] | accumulation in S-phase starting at day three, accompanied by increase of the Sub-G1 population | – | – | – | – | – | – |
| sgCIDE-10: guide RNA TTCTCCTGCCTCAGCCTCCC (SEQ ID NO:10) (chemistry not fully specified) | rapid increase of the Sub-G1 population starting at day one post-transduction | – | over three log-scales reduction in colony count | viral titer-dependent lethality in all four tested glioblastoma cell lines | – | – | – |
| sgCIDE-8: guide RNA CTGTAATCCCAGCACTTTGG (SEQ ID NO:8) (chemistry not fully specified) | rapid increase of the Sub-G1 population starting at day one post-transduction | – | over three log-scales reduction in colony count | viral titer-dependent lethality in all four tested glioblastoma cell lines | – | – | – |
| sgCIDE-1: guide RNA TGTAATCCCAGCACTTTGGG (SEQ ID NO:1), targets repetitive genomic sites (chemistry not given here) | rapid increase of the Sub-G1 population starting at day one post-transduction | rapid elimination of the mCherry-positive population | over three log-scales reduction in colony count | viral titer-dependent lethality in all four tested glioblastoma cell lines | very long tails | – | – |
| sgRPA1-2: guide RNA to essential gene RPA1, TACCTGGAGCAACTCCCGAG (SEQ ID NO:36) [reference compound] | accumulation in S-phase starting at day three, accompanied by increase of the Sub-G1 population | – | – | – | – | – | – |
| sgCIDE-3: guide RNA GCCTGTAATCCCAGCACTTT (SEQ ID NO:3) (chemistry not fully specified) | rapid increase of the Sub-G1 population starting at day one post-transduction | – | over three log-scales reduction in colony count | viral titer-dependent lethality in all four tested glioblastoma cell lines | very long tails | – | – |
| sgCIDE-5: guide RNA CCTCGGCCTCCCAAAGTGCT (SEQ ID NO:5) (chemistry not given here) | – | rapid elimination of the mCherry-positive population | – | – | – | – | – |
| sgCIDE-6: guide RNA CCCAGCACTTTGGGAGGCCG (SEQ ID NO:6) (chemistry not fully specified) | rapid increase of the Sub-G1 population starting at day one post-transduction | – | over three log-scales reduction in colony count | viral titer-dependent lethality in all four tested glioblastoma cell lines | – | – | – |
| sgNT-1: non-targeting guide RNA GGCCAAACGTGCCCTGACGG (SEQ ID NO:29) (chemistry not fully specified) [reference compound] | comparable normal cell cycle profiles | – | little effect on colony formation | no effect | – | – | – |
| sgNT-2: non-targeting guide RNA GCGATGGGGGGGTGGGTAGC (SEQ ID NO:30) (chemistry not fully specified) [reference compound] | comparable normal cell cycle profiles | – | little effect on colony formation | no effect | – | – | – |
| sgOR2B6-1: guide RNA to olfactory receptor gene, CATTATTCTAGTGTCACGCC (SEQ ID NO:32) (chemistry not given here) [reference compound] | comparable normal cell cycle profiles | no depletion | – | – | – | – | – |
| sgCIDE-4: guide RNA CGCCTGTAATCCCAGCACTT (SEQ ID NO:4) (chemistry not given here) | – | rapid elimination of the mCherry-positive population | – | – | – | specific cell depletion | only minimal amounts of cell depletion |
| sgCIDE-2: guide RNA TCCCAAAGTGCTGGGATTAC (SEQ ID NO:2) (chemistry not given here) | rapid increase of the Sub-G1 population starting at day one post-transduction | rapid elimination of the mCherry-positive population | over three log-scales reduction in colony count | viral titer-dependent lethality in all four tested glioblastoma cell lines | very long tails | specific cell depletion | only minimal amounts of cell depletion |
